Assay results from PMC5843908, “Detection of PRMT1 inhibitors with stopped flow fluorescence” (Signal Transduction and Targeted Therapy, 2018).

Target: PRMT1 (Homo sapiens, UniProt Q99873)
Assay: Stopped flow fluorescence assay of PRMT1 inhibition ([PRMT1] 0.2 µM, [SAM] 3.5 µM, [H4FL] 0.4 µM);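 further: Stopped-flow traces of fluorescent H4FL peptide quenched on binding PRMT1 and restored on release, recorded 900 s, averaged over repeated drives and fit to a double-exponential model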
Type: biochemical
Source text: To obtain the IC50 of a specific inhibitor, the relative activities of the enzyme in presence of different concentrations of the inhibitor are required (equation 1).[37] […] By adding different concentrations of the inhibitor to the reaction mixture, the relative activity of the enzyme can be obtained by normalizing K to the reaction rate without the inhibitor, and then calculate the IC50 value using equation 1. In our stopped flow fluorescence assay, the reaction rate of Phase I and Phase II can be obtained by approximating and deriving the double-exponential equation (equation 2). In Phase I, during a very short period of time (where t is small), the curve is nearly linear, and the exponential equation can be approximately described as F1 = a · (−k1) · t. Therefore, the derivation of F1 equals –k1∙a, which is the slope of Phase I. Similarly, the curve of Phase II at early stage can be approximately described as F2 = b · (−k2) · t. This derivation of F2 equals –k2∙b, which is the slope of Phase II. The slopes at various inhibitor concentrations, normalized to the slope in the absence of inhibitor, can be used to obtain the corresponding relative enzyme activity from which the potency value (IC50) of the inhibitor can be calculated with equation 1.
In a stopped flow fluorescence assay, the binding of H4FL to PRMT1 (or the PRMT1—cofactor complex) quenches the peptide fluorescence, while release of the peptide restores the fluorescence. […] The widths of the entrance and exit slits of the monochromator were set to 0.5 mm. An equal volume of samples from two syringes was driven into the observation cell for mixing measurements. The H4FL concentration in all experiments was 0.4 μM. […] The fluorescent signal was recorded for 900 seconds, with 10,000 data points in total. Data from four to six drives were collected and averaged for each curve.
After averaging the shot data, the association time courses were fitted to a double-exponential function (equation 2) using GraphPad Prism (CA, USA). […] F is the fluorescence intensity at time t, k1, and k2 are the rate constants for Phase I and Phase II, a is the amplitude of the fluorescence change for k1, and b is the amplitude of the fluorescence change for k2. Simulation curves based on the values of a, b, k1, and k2 at fixed c = 1 were produced using Matlab. The IC50 value of inhibitors is determined by equation 1 using GraphPad Prism (CA, USA).

Chain of PRMT1 (Q99873 29-371): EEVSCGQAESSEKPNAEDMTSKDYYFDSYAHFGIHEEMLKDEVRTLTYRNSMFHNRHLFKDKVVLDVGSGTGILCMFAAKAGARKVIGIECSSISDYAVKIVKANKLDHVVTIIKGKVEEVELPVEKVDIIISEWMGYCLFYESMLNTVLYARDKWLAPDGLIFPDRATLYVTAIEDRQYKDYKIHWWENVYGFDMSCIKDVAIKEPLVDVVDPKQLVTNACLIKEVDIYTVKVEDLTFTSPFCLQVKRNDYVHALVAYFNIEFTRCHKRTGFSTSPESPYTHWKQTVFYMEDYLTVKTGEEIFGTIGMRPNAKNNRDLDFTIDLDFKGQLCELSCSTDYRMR

-b·k2 (slope of Phase II) ([SAH] 0.1 µM): 0.000677 ± 1.35e-06 s⁻¹
a (amplitude, Phase I) ([SAH] 0.1 µM): 0.2027 ± 4.00E-04
a·k1 (slope of Phase I) ([SAH] 0.1 µM): 0.0122 ± 4.9e-05 s⁻¹
b (amplitude, Phase II) ([SAH] 0.1 µM): -0.2201 ± 1.26E-04
k1 (rate constant, Phase I) ([SAH] 0.1 µM): 0.05995 ± 2.11E-04 s^-1
k2 (rate constant, Phase II) ([SAH] 0.1 µM): 0.003078 ± 5.86E-06 s^-1
-b·k2 (slope of Phase II) ([SAH] 0.25 µM): 0.000561 ± 1.3e-06 s⁻¹
a (amplitude, Phase I) ([SAH] 0.25 µM): 0.2214 ± 4.39E-04
a·k1 (slope of Phase I) ([SAH] 0.25 µM): 0.0144 ± 5.59e-05 s⁻¹
b (amplitude, Phase II) ([SAH] 0.25 µM): -0.2306 ± 1.33E-04
k1 (rate constant, Phase I) ([SAH] 0.25 µM): 0.06487 ± 2.18E-04 s^-1
k2 (rate constant, Phase II) ([SAH] 0.25 µM): 0.002434 ± 5.47E-06 s^-1
-b·k2 (slope of Phase II) ([SAH] 0.5 µM): 0.000352 ± 1.25e-06 s⁻¹
a (amplitude, Phase I) ([SAH] 0.5 µM): 0.2658 ± 3.49E-04
b (amplitude, Phase II) ([SAH] 0.5 µM): -0.2629 ± 3.89E-04
k1 (rate constant, Phase I) ([SAH] 0.5 µM): 0.06324 ± 1.36E-04 s^-1
k2 (rate constant, Phase II) ([SAH] 0.5 µM): 0.00134 ± 4.32E-06 s^-1
-b·k2 (slope of Phase II) ([SAH] 1 µM): 0.000234 ± 1.38e-06 s⁻¹
a (amplitude, Phase I) ([SAH] 1 µM): 0.2726 ± 3.65E-04
a·k1 (slope of Phase I) ([SAH] 1 µM): 0.0186 ± 4.67e-05 s⁻¹
b (amplitude, Phase II) ([SAH] 1 µM): -0.2134 ± 6.03E-04
k1 (rate constant, Phase I) ([SAH] 1 µM): 0.06815 ± 1.45E-04 s^-1
k2 (rate constant, Phase II) ([SAH] 1 µM): 0.001095 ± 5.70E-06 s^-1
-b·k2 (slope of Phase II) ([SAH] 2.5 µM): 0.00011 ± 2.16e-06 s⁻¹
a (amplitude, Phase I) ([SAH] 2.5 µM): 0.2961 ± 3.73E-04
a·k1 (slope of Phase I) ([SAH] 2.5 µM): 0.0213 ± 4.93e-05 s⁻¹
b (amplitude, Phase II) ([SAH] 2.5 µM): -0.1862 ± 2.16E-03
k1 (rate constant, Phase I) ([SAH] 2.5 µM): 0.07177 ± 1.40E-04 s^-1
k2 (rate constant, Phase II) ([SAH] 2.5 µM): 0.0005933 ± 9.36E-06 s^-1
-b·k2 (slope of Phase II) ([SAH] 5 µM): 5.14e-05 ± 8.08e-06 s⁻¹
a (amplitude, Phase I) ([SAH] 5 µM): 0.2962 ± 3.74E-04
b (amplitude, Phase II) ([SAH] 5 µM): -0.3000 ± 3.18E-02
k1 (rate constant, Phase I) ([SAH] 5 µM): 0.05757 ± 1.17E-04 s^-1
k2 (rate constant, Phase II) ([SAH] 5 µM): 0.0001714 ± 1.98E-05 s^-1
-b·k2 (slope of Phase II) ([SAH] 10 µM): 2.22e-05 ± 2.71e-05 s⁻¹
a (amplitude, Phase I) ([SAH] 10 µM): 0.2774 ± 5.02E-04
b (amplitude, Phase II) ([SAH] 10 µM): -0.2999 ± 2.24E-01
increasing trend of Phase II ([SAH] 10 µM): almost abolished
k1 (rate constant, Phase I) ([SAH] 10 µM): 0.05889 ± 1.70E-04 s^-1
k2 (rate constant, Phase II) ([SAH] 10 µM): 7.42e-05 ± 5.74e-05 s⁻¹
Compound: Nc1ncnc2c1ncn2[C@@H]1O[C@H](CSCC[C@H](N)C(=O)O)[C@@H](O)[C@H]1O [SAH, S-adenosyl homocysteine]
